Assay results taken from US11414438B2, “Silylethynyl hetaryl compounds as nitrification inhibitors” (BASF SE, priority 2018, dated 2022).

Tests used:
nitrification = assay: inhibition of nitrification in soil incubation (ammonium and nitrate content after 14 days); details: 20° C., 10 mg ammoniumsulfate-N; for NI @ 0.3%: compound at 0.3% of nitrogen N; for NI @ 1%: compound at 1% of nitrogen N; for NI @ 0.1%: compound at 0.1% of nitrogen N; for NI @ 3%: compound at 3% of nitrogen N
Protocol: The compounds of the invention have been tested as follows in terms of the inhibition of nitrification:
100 g soil is filled into 500 ml plastic bottles (e.g. soil sampled from the field) and is moistened to 50% water holding capacity. The soil is incubated at 20° C. for two weeks to activate the microbial biomass. 1 ml test solution, containing the compound in the appropriate concentration (usually 0.3 or 1% of nitrogen N), or DMSO and 10 mg nitrogen in the form of ammoniumsulfate-N is added to the soil and everything mixed well. Bottles are capped but loosely to allow air exchange. The bottles are then incubated at 20° C. for 0 and 14 days.
For analysis 300 ml of a 1% K2SO4-solution is added to the bottle containing the soil and shaken for 2 hours in a horizontal shaker at 150 rpm. Then the whole solution is filtered through a filter (Macherey-Nagel Filter MN 807¼). Ammonium and nitrate content is then analyzed in the filtrate in an autoanalyzer at 550 nm (Merck, AA11).
The inhibition (NI @ a specified concentration) is calculated as follows: […]

[1] = volatility: weight loss from open vials in the hood; format: physicochemical; details: 251 mg in 10 ml vials open in the hood
Protocol: The compounds of the invention have been tested in terms of their volatility. 251 mg of the compounds were provided in 10 ml vials open in the hood and tested in comparison to 5-chloro-2-ethynyl pyridine (Ref.-1). The weight loss was determined after 1 week.

Compound | NI @ 0.3% (nitrification) | NI @ 1% (nitrification) | NI @ 0.1% (nitrification) | NI @ 3% (nitrification) | % weight loss after 1 week [1] [%]
C[SiH](C)C#Cc1ccccn1 [No. 2] | 82 | 94 |  |  | 
C[Si](C)(C#Cc1ccccn1)C[Si](C)(C)C#Cc1ccccn1 [No. 8] | 16 | 43 |  |  | 
C[Si](C)(C)C#Cc1ccccn1 [No. 1] | 77 |  | 54 | 86 | 
C[Si](C)(C#Cc1ccccn1)O[Si](C)(C)O[Si](C)(C)C#Cc1ccccn1 [No. 6] | 51 | 75 |  |  | 
C[Si](C)(C#Cc1ccccn1)c1ccccc1 [No. 9] | 83 | 80 |  |  | 
C[Si](C)(C)C#Cc1cnccn1 [No. 12] | 98 |  | 71 |  | 24
C#Cc1ccc(Cl)cn1 [Ref.-1, 5-chloro-2-ethynyl pyridine, reference compound] |  |  |  |  | 53
C[Si](C)(C)C#Cc1ccc(Cl)cn1 [No. 10] | 75 |  | 61 | 85 | 8
C[Si](C)(C#Cc1ccccn1)CCl.Cl [No. 3] | 80 | 91 |  |  | 
C[Si](C)(C#Cc1ccccn1)O[Si](C)(C)C#Cc1ccccn1 [No. 5] | 78 | 83 |  |  | 
Cc1ccc(C#C[Si](C)(C)C)nc1 [No. 11] | 63 | 77 |  |  | 
C[Si](C)(C#Cc1ccccn1)O[Si](C)(C)O[Si](C)(C)O[Si](C)(C)C#Cc1ccccn1 [No. 7] | 31 | 63 |  |  | 
CC(C)(C)[Si](C)(C)C#Cc1ccccn1 [No. 4] | 11 | 28 |  |  | 
